Results taken from patent US12157869B2, “Methods and compositions for reducing persistent odor in clothing and mitigating biofilms on various materials” (priority 2019, dated 2024).
Where a name gives a salt, the structure may show the parent alone.

What was measured:
[1] = system: biofilm matter in clothing; assay: UV light visualization of fluorescence of suspected biofilm matter in clothing (optical brightener / Calcofluor White)
Description: Three UV lamps were used in testing fluorescence in potential biofilms. These included a Lightfe® UV301D lamp providing a beam at 365 nm, a UVBeast V3 lamp operating at 395 nm, and a UV Nova 108-LED UV lamp operating at 395 nm.
In one approach, biofilm candidates were stained using Calcofluor White M2R dye, a fluorescent brightener purchased from Phyto Technology Laboratories (Shawnee Mission, Kansas), CAS No. 4404-43-7. A solution was prepared of 0.074% Calcofluor white in water, and given the name CF1.
In examining fluorescence, it was eventually noted that both an SLR camera and an iPhone camera could not easily capture the fine details of fluorescence when using any of the UV lamps available for this study, probably because the fluorescence, including some background fluorescence, may have interfered with the camera's visible light operations. […] A rubber band was sufficient for holding it in place.

[2] = system: persistent odor (perma-odor) in clothing; assay: Odor evaluation of treated clothing by smelling (odor level on a scale of 0 to 5)
[3] = system: darkened regions believed to be biofilm remnants in clothing; assay: Visible-light inspection of darkened or yellow regions in clothing; details: shirt CH1; left pit 6 g 2.1% NAC then 1.95 g E3; right pit 2.1 g E3 without NAC; about 20 min, short cycle 30°C Purex
Excerpt: FIG. 10A depicts the left pit of shirt CH1 in visible light after the treatments described previously (as well as the treatment with optical brighter). A dark region 202 is still present that appears to come from within the fabric rather than resting on its surface. It is believed to come from biofilm material such as polysaccharides, proteins, and genetic material, that is capable of adhering to optical brighteners such as CF1 solution. FIG. 10B depicts the same region in UV light using the UVBeast V3 lamp. The dark region 202 of FIG. 10A is now a fluorescent region 204 with the appearance of a purple color, believed to result from Calcofluor White fluorescence couple with the dark matter's blocking of the fluorescence of the shirt material itself. […] The fluorescence in CH1 was bright enough to be detected even with the orange dye of the shirt brightly fluorescing at the same time.

With `O=C(O)CC(O)(CC(=O)O)C(=O)O` [sodium citrate] the “fluorescence of previously treated pits” value ([1]; shirt RA1, 12% sodium citrate solution 7 g then 1.72 g E3D, about 30°C 3 hours, Lemon Brite) was “only very slight improvement at best”, the reddish fluorescent zone ([1]; shirt RA1, 12% sodium citrate solution then E3D) was “significant reduction” and the “fluorescence of previously untreated spot” value ([1]; shirt RA1, 12% sodium citrate solution then E3D, about 30°C 3 hours, also slightly smaller in extent) was “significantly reduced in brightness”. The “fluorescence of two zones of right pit” value ([1]; shirt RA1, each about 2.3 g 12% citrate solution, lower zone also 1.86 g E3D, 40-45°C two hours) was “only little reduction in fluorescence”.

`CC(=O)N[C@@H](CS)C(=O)O` [NAC, N-acetyl cysteine] was tested, and the “odor after one work day, shirt AA left pit” value ([2]; 2.1% NAC and NIC, wash) was “remained smelling fresh”, the “odor after one work day, shirt AA right pit” value ([2]; 2.1% NAC, NIC and 2 g E2, wash) was “smell again” and the “owner's report after wash and exercise, shirt WL” value ([2]; left pit 4.8 g 2% NAC (pH 7.8), 2 min, 6.5 g NIC, 10 min, 5 g NIC, liquid Tide) was “substantial improvement”. For the same compound, the “odor after heavy exercise, shirt RL” value ([2]; right pit 2% NAC pH 7.8 then NIC, left pit NIC only, washed) was “strong odor”, the “odor level after washing and exercise, shirt BL right pit” value ([2]; right pit 2.1% NAC, EGCD-2, left pit about 2, scale of 0 to 5) was ~1 and the “odor after washing and exercise, shirt WL” value ([2]; right pit 2.1% NAC, EGCD-B, NIC) was “very little odor”. For the same compound, the “odor level after washing and exercise, shirt RL” value ([2]; right pit 2.1% NAC, EGCD-B, NIC, both pits about the same, scale of 0 to 5) was “about 2”, the “odor following exercise, shirt AB” value ([2]; right pit 8.2 g 2.1% NAC, 3.3 g NIC, 5.4 g LPS1, wash) was “smell better in general” and the “residual odor after wash, shirt RL” value ([2]; right pit 9.1 g 2% NAC pH 7.8, 11 min, 5.8 g NIC, left pit 10 g NIC only) was “appeared to have been eliminated”. For the same compound, the “odor level after washing and drying” value ([2]; shirt BD1 right pit, 5.2 g 2.1% NAC (pH 4) then 2.9 g E3C, Purex, about 3 before, untreated left pit about 1, scale of 1 to 5) was 0, the “odor after handwash and air drying” value ([2]; shirt CH1, right pit 3.2% NAC solution (2 g outside and inside), 2 min, then NIC 4.83 g, left pit NIC only 7.4 g, 5 min) was “smelled better than the left” and the “odor intensity after exercise and 48 hours storage at room temperature” value ([2]; shirt CH1, right pit second treatment: 8 ml NAC solution (600 mg effervescent tablet in 100 ml) then 5.3 ml EGCD-A, 20 min, left pit earlier NIC only, 0 to 5 scale) was 2 to 3. The “odor rating after further exercise, left pit” value ([2]; shirt CH1 left pit, 10 g 2% NAC solution 10 min, 9 g NIC 15 min, rinse, wash (Bright Blue Moon), scale 0 to 5) was 2 to 3, the “odor after exercise relative to left pit” value ([2]; shirt CH1 right pit, 2% NAC solution, washed, odor level about 5 before) was “significantly reduced” and the “odor level after washing” value ([2]; shirt CH1 right pit, 2.4 g pH 3.0 NAC solution, 5 min, short cycle with Bright Blue Moon, scale of 0 to 5) was “about 0.5”. For the same compound, the “odor after handwash and drying” value ([2]; shirt CH1 right pit, 21 g 2% NAC solution, 5.94 g EGCD-A, 10 min, 7 g NIC, about 10 min) was “no odor”, the “odor rating after further exercise, right pit” value ([2]; shirt CH1 right pit, earlier NAC, EGCD-A and NIC treatments, scale 0 to 5) was “about 1” and the “odor after washing and air drying” value ([2]; shirt Dec1 right pit, 1.6 g of 1.8% NAC solution (pH about 2), then standard wash with Bright Blue Moon enzymatic detergent) was “some odor”. For the same compound, the “odor of treated pits after wash” value ([2]; shirts AA, AB, AC, 2.1% NAC solution, about 10 min, then NIC (some pits also E2 or LPS1), 15 min, wash with Bright Blue Moon, versus untreated pits or pits without NAC) was “smelled better than before”, the odor after washing ([2]; shirts RL, BL, WL right pits, 2.1% NAC solution 12-13.5 g, then EGCD-B or EGCD-2, then NIC (RL, WL), owner's report) was “significantly reduced odor” and the “darkened regions after wash” value [3] was “perhaps slightly lighter”. The “fluorescent zones after wash” value ([1]; shirt BD1, right pit 2.1% NAC (pH 4) then E3C) was “slightly decreased in intensity”, the “intensity of fluorescent zones after wash” value ([1]; shirt BD1, right pit 5.2 g 2.1% NAC pH 6.4 then 3.0 g E3D, left pit water then 3.28 g E3D, about 33°C 2 hours, full cycle 40°C Tide) was “may have decreased slightly” and the “fluorescence after CF1 staining, left pit” value ([1]; shirt CH1, 2.1% NAC then E3, wash, Lightfe UV301D 365 nm) was “perhaps weaker than initially seen”. For the same compound, the fluorescence after wash ([1]; shirt RA1, left pit 4.54 g 2.1% NAC then 10.7 g E3D, right pit 9.2 g E3D only, about 33°C 2 hours, short cycle 30°C Purex) was “significant reduction in fluorescence” and the “residual fluorescence, lower versus upper half of left pit” value ([1]; shirt RA1, lower half 2.15% NAC (pH 6.4 and 9.17), upper half water, both CellulaseC 5.6 g and AmylaseA 1.94 g, about 28°C 30 min) was “declined more strongly”.
